{"source": "paper PMC11671014", "about": "(PLOS Pathogens, 2024)", "key": {"[1]": {"tested_on": "P. falciparum Brazilian field isolates", "experiment": "Ex vivo drug susceptibility of Brazilian field isolates (P. falciparum)", "format": "cell-based", "settings": "Plasmodium falciparum", "procedure": "Compounds were assayed on ten P. vivax isolates and seven P. falciparum Brazilian isolates collected from mono-infected patients, who had signed a written informed consent form to participate in the study, using previously described methods. The initial parasitemia ranged from 2,100–8,000 parasites/μL for P. vivax and 3,500–9,000 parasites/μL for P. falciparum isolates. Artesunate and chloroquine were assayed in parallel as standard compounds. The analyses included only the isolates that were incubated for ≥ 40 h with the compounds."}, "[2]": {"tested_on": "P. falciparum (strain 3D7A)", "experiment": "Parasite Reduction Rate (PRR) estimation", "format": "cell-based, Plasmodium falciparum", "settings": "10 x IC50", "procedure": "PRR was assessed using a standardized method. P. falciparum (strain 3D7A, MRA-151), contributed by David Walliker, was obtained through BEI Resources, NIAID, NIH. Cultures of parasites (~90% ring stage) were treated with compounds for 120 h, with daily renewal. Samples of parasites were taken at 0, 24, 48, 72, 96 and 120 h. Compounds were washed out and four independent 3-fold serial dilutions were established in 96-well plates, with fresh RBCs and culture medium. After 18 days, and again at 22 days, samples were taken to examine growth using SYBR Green I in an EnVision Multilabel Plate Reader (Perkin Elmer) and analysed using Excel and Grafit 5.0 software. The human biological samples were sourced ethically, and their research use was in accord with the terms of the informed consents under an IRB/EC approved protocol."}, "[3]": {"tested_on": "stage V NF54 strain male and female gametocytes", "experiment": "P. falciparum Dual Gamete Formation Assay (PfDGFA)", "format": "cell-based", "settings": "Plasmodium falciparum, 48 h", "procedure": "Inhibition of the viability of stage V male and female gametocytes was assessed in the P. falciparum Dual Gamete Formation Assay (PfDGFA) as described previously. Briefly, mature stage V NF54 strain gametocytes were incubated with test molecules for 48 h in 384-well plates at 37°C. Gametogenesis was then triggered by cooling the plates to room temperature and addition of xanthurenic acid-containing activating medium (also containing anti-Pfs25 antibody (Mab 4B7) conjugated to a Cy3 fluorophore). Twenty minutes after activation, exflagellation was imaged in all wells of the plate using a x4 objective and automated brightfield microscopy. The plate was then incubated at 20°C for a further 24 h in the dark. Thereafter, female gamete formation was quantified by automated identification of Pfs25-positive cells. Automated counts were transformed to percent inhibition values with reference to positive 100 nM Cabamiquine (DDD498) and negative (DMSO) controls. Data represent the means of multiple independent biological repeats."}, "[4]": {"tested_on": "P. falciparum (Pf3D7^0087/N9)", "experiment": "Therapeutic efficacy and tolerability in the SCID mouse P. falciparum model", "format": "in vivo, Plasmodium falciparum in NODscidIL2Rγ^null mice", "procedure": "The model using P. falciparum Pf3D7^0087/N9 in NODscidIL2Rγ^null mice engrafted with human RBCs was adapted from a previously described procedure. Female NODscidIL2Rγ^null mice were purchased from Charles River (Germany). Briefly, two engrafted mice/dosing group (females, 20–22 g) were infected intravenously with 2 x 10^7 P. falciparum (Pf3D7^0087/N9) on day 0. The antimalarial efficacy was assessed following administration (p.o.) of 100 or 200 mg/kg of compound or of 4 daily doses of 50 mg/kg, initiated on day 3 post-infection. The effect on blood parasitemia was measured by microscopic analysis of Giemsa-stained blood smears (on days 3, 4, 5, 6 and 7 post-infection). Mice were euthanized on day 7. Animal were monitored for symptoms of acute toxicity, including decreased activity, sunken flanks, ataxia and blood in faeces."}}, "note": "“Also recorded” adds a separate entry of the source. Read-outs that look alike come from different tables or passages of the source."}
{"smiles": "CC(C)c1nn([C@@H]2O[C@H](COS(N)(=O)=O)[C@@H](O)[C@H]2O)c2ncnc(N)c12", "note": "[ML471, ((2R,3S,4R,5R)-5-(4-amino-3-isopropyl-1H-pyrazolo[3,4-d]pyrimidin-1-yl)-3,4-dihydroxytetrahydrofuran-2-yl)methyl sulfamate]", "values": [{"measurement": "EC50", "setting": "[1]; range over n = 7 isolates, read-out: EC50 range, P. falciparum Brazilian field isolates", "value": "2.5 to 4.9", "unit": "nM"}, {"measurement": "EC50", "setting": "[1]; read-out: Median EC50, P. falciparum Brazilian field isolates", "value": 4.2, "unit": "nM"}, {"measurement": "Lag phase", "setting": "[2]", "value": 0, "unit": "h"}, {"measurement": "Log PRR", "setting": "[2]", "value": 4.1}, {"measurement": "PCT99.9%", "setting": "[2]", "value": 32, "unit": "h"}, {"measurement": "Slope", "setting": "[2]", "value": -0.09}, {"measurement": "IC50", "setting": "[3]; female, read-out: Dual gamete formation assay (female) IC50(48h)", "value": 260, "unit": "nM"}, {"measurement": "IC50", "setting": "[3]; male, read-out: Dual gamete formation assay (male) IC50(48h)", "value": 49, "unit": "nM"}, {"measurement": "effect on 3D7 parasitemia, 4 x daily doses", "setting": "[4]; 4 x daily doses of 50 mg/kg p.o. from day 3 post-infection", "value": "reduced the 3D7 parasitemia to baseline"}, {"measurement": "tolerability / toxicity in SCID mice (in words)", "setting": "[4]; 100 or 200 mg/kg p.o. single dose, 4 x 50 mg/kg p.o.", "value": "well tolerated; also recorded: no evidence of toxicity"}, {"measurement": "effect on 3D7 parasitemia, single dose regimen", "setting": "[4]; either 100 or 200 mg/kg p.o. on day 3 post-infection", "value": "reduction of 3D7 parasitemia to baseline"}]}
